± gives the expanded uncertainty stated by the source.
Key:
[1] = Liquid; for mass density: 101.33 kPa
[2] = refractive index (Na D-line) (dimensionless); settings: 101.33 kPa, Liquid, Standard Abbe refractometry

Compound | mass density ([1]; 298.15 K) [kg/m3] | refractive index ([2]; 298.15 K) | also measured
N#Cc1cnccn1 [2-cyanopyrazine] | – | – | mass density ([1]; 293.15 K): 1174 ± 1.8 kg/m3; vapor or sublimation pressure ([1]; 476.15 K): 95.1 ± 5 kPa; refractive index ([2]; 293.15 K): 1.534 ± 0.0007
CCC(C)=O [butanone] | 799.8 ± 1.2 | 1.3769 ± 0.0007 | vapor or sublimation pressure ([1]; 350.95 K): 95.1 ± 5 kPa
CCCCCCCCCC [decane] | 726.4 ± 1 | 1.4097 ± 0.0007 | vapor or sublimation pressure ([1]; 444.95 K): 95.1 ± 5 kPa
CCCCCCCC [octane] | 698.6 ± 1 | – | vapor or sublimation pressure ([1]; 391.15 K): 95.1 ± 5 kPa

Now from value to molecule, other results behind:

mass density ([1]; 298.15 K) [kg/m3] | refractive index ([2]; 298.15 K) | Compound | also measured
989.3 ± 1.5 | 1.5142 ± 0.0007 | COc1ccccc1 [anisole] | vapor or sublimation pressure ([1]; 424.45 K): 95.1 ± 5 kPa
718.5 ± 1 | 1.3654 ± 0.0007 | CC(C)OC(C)C [diisopropyl ether] | vapor or sublimation pressure ([1]; 339.65 K): 95.1 ± 5 kPa
943.9 ± 1.4 | 1.4282 ± 0.0007 | CN(C)C=O [dimethylformamide] | vapor or sublimation pressure ([1]; 420.85 K): 95.1 ± 5 kPa; vapor or sublimation pressure ([1]; 420.95 K): 95.1 ± 5 kPa

Source: the NIST ThermoML archive (doi:10.1016/j.fluid.2007.02.026)
